Experimental findings from patent US20260335272A1, “SAGERINIC ACID AND COMPOSITIONS CONTAINING SAME, FOR USE IN THE PREVENTION AND/OR TREATMENT OF SENESCENCE-RELATED DISORDERS IN A HUMAN OR ANIMAL” (A2P SCIENCES, priority 2022, published 2026) are described below.

The nature of assay [1]: Protein deglycating activity: release of benzoic acid from 1-phenyl-1,2-propanedione (PPD), HPLC. Particulars: for Activity (protein deglycating activity): 0.25% (w/V) product, 0.375% (w/V) PPD, 37 °C, 24 hours, phosphate buffer pH 7.4-methanol 50/50, benzoic acid by HPLC at 229 nm. As to the method:
The test products in 0.25% (w/V) solution are left in contact with a 0.375% (w/V) solution of 1-phenyl-1,2-propanedione (PPD) for 24 hours at 37 °C. An HPLC dosing, at 229 nm after passage through an Ascentis® Express C18 column, was carried out at TO and again after 24 hours so as to determine the benzoic acid content. Calculating the percentage of pmol of benzoic acid/μmol of PPD in the reaction medium determines the activity of the deglycants.
Dissolve 0.178 g monopotassium phosphate and 0.955 g dibasic sodium phosphate dihydrate in 100 ml purified water. The pH is adjusted if necessary.
A mixture is made with 50 ml phosphate buffer pH 7.4 and 50 ml methanol.
A solution of exactly 0.375% (w/V) PPD is made in the mixture buffer phosphate pH 7.4—methanol (50/50).
A solution of approximately 0.25% (w/V) of the product to be tested is made in the mixture buffer phosphate pH 7.4—methanol (50/50).
Product to be tested: Alagebrium chloride (MedChem Express, ref. HY-106024B), Sagerinic acid (prepared according to example 5.1.).
A stock solution of approximately 0.08% (w/V) benzoic acid is made in ethyl alcohol. This solution is diluted 1:10 (V/V) in purified water (D).
(D) is then diluted 1:5, 2:5, 3:5 and 4:5 (V/V) in purified water. (D1, D2, D3 and D4).
A linear calibration line was established: area of the benzoic acid peak, with a retention time of 9.17 min and observed at 229 nm, as a function of the concentration in % (w/V).
(§1) A series of hermetically sealed pillboxes are filled with:
Stir after each addition.
0.05 ml is taken from each pillbox to measure the benzoic acid content at TO. The pillboxes are resealed and placed in an oven at 37 °C for a minimum of 21 to a maximum of 24 hours.
The same volume will be taken for dosing on leaving the oven.
The time at 37 °C must be exactly the same for the control and all the tests, so they are prepared as they go along.
The 0.05 ml samples are diluted 1:5 (V/V) in purified water, i.e. by adding 0.2 ml. […]
The % of pmol of benzoic acid/μmol of PPD in the reaction medium is calculated: • TT0×10000×100/122.12×12.655 […]

Assay [2] in a line: DPPH free radical elimination (anti-radical / oxidative stress effect). The assay is classed as physicochemical. Particulars: for Activity (elimination of DPPH free radical): antioxidant solution 0.0007% (ascorbic acid in ethyl alcohol, sagerinic acid in water), 0.15 ml in 4.5 ml, phosphate buffer pH 7, 5 min, OD at 519 nm. As to the method: The principle of the method for assessing the effect of sagerinic acid compared to ascorbic acid as a reference molecule is based on the elimination of a stable free radical, the 2,2-Diphenyl-1-picrylhydrazyl (DPPH Sigma Aldrich ref D9132).
Dissolve 0.177 g monopotassium phosphate and 0.730 g dibasic sodium phosphate dihydrate in 50 ml purified water. The pH is adjusted if necessary.
A solution of exactly 0.0027% (w/V) DPPH in methanol is made.
A solution of exactly 0.1% (w/V) ascorbic acid (Riedel-de-Haen, ref.33034) is made in ethyl alcohol. This solution is diluted to 0.0007% (V/V) in ethyl alcohol.
A solution of exactly 0.1% (w/V) sagerinic acid (prepared according to example 5.1.) is made in water. This solution is diluted to 0.0007% (V/V) in water.
as §1
For the sample and the blank: • After addition, stir for 5 min on a magnetic stirrer • Add 4 ml toluene • Stir for 30 seconds with a magnetic stirrer • Allow to settle for 20 seconds to 1 minute (if necessary) • Recover the organic phase from the top using an automatic pipette, taking care not to recover any aqueous phase • Read the OD of the organic phase using a spectrophotometer at 519 nm

The target in another assay is T1, SIRT1 (Homo sapiens, UniProt Q96EB6).
T1 construct: fluorogenic deacetylation assay
T1 sequence (Q96EB6 1-747): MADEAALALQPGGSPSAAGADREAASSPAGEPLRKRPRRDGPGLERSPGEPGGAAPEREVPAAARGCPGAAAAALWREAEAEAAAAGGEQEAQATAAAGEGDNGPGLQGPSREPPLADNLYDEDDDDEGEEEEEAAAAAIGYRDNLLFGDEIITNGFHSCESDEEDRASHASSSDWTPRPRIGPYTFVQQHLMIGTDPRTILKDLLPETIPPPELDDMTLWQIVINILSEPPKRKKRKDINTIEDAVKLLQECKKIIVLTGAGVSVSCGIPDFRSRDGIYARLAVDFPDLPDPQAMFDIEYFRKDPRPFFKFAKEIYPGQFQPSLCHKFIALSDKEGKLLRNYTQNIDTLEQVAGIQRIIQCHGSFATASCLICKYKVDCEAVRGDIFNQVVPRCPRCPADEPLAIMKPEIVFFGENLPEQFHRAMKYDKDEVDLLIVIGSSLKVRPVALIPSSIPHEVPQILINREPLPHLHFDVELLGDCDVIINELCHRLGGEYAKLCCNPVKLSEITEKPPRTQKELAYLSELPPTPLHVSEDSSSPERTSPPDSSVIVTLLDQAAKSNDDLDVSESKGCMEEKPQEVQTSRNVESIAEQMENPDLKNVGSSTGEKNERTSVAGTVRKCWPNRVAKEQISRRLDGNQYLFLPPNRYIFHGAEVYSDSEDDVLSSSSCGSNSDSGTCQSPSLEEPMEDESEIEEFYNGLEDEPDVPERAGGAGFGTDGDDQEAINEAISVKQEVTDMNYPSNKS
Briefly: SIRT1 Inhibitor/Activator screening kit (ab283377), fluorimetric sirtuin-1 activation. Type of assay: biochemical. Particulars: for Activity (activation of sirtuin-1): 2.28% (w/V) activator in DMSO diluted 1:250 in DTT buffer, 25 μl, 37 °C, 30-60 min, Ex/Em=400/505 nm. An excerpt:
The SIRT1 Inhibitor/Activator screening kit deacetylates the substrate with SIRT1, followed by cleavage of the deacetylated substrate to release the fluorescent group, which is detected by fluorimetry at Ex/Em=400/505 nm.
The SIRT1 activator enhances the SIRT1 activity resulting in a higher fluorescent signal compared to the control. This kit provides a rapid, simple, sensitive and reliable test, suitable for high-throughput screening of SIRT1 activators.
• Solutions of the kit: Reference ab283377 (Abeam) • Buffer • Substrate • SIRT1 • NAD • DTT • DMSO Réference 34869 (Honeywell Riedel-de-Haen)
A solution of exactly 2.28% (w/V) activator (resveratrol (Sigma Aldrich, ref.R5010) and sagerinic acid prepared according to example 5.1.) is made in DMSO. Dilute to 1:250 in the DTT buffer solution.
Preparation of the enzyme solution: Make the following additions to 3 separate wells:
• 1. To the SIRT1 enzyme solution wells, add: • 25 μl of undiluted activator solution (2.28% solution) in a well as activator control (AC) • 25 μl of DTT-free buffer in a well as an enzyme control (EC) • 25 μl of diluted activator solution as assay (S) • 2. In another well, add 50 μl of DTT-free buffer as a blank control (without enzyme). • 3. Mix well and incubate the plaque for 5 minutes at 37 °C
Preparation of the substrate: After incubation, make the following additions to each well:
Mix and incubate at 37 °C for 30-60 min.
Mix well and incubate for 10 min at 37 °C, protected from light.
Read the fluorescence (Ex/Em=400/505 nm).
The activation of sirtuin-1 by sagerinic acid was compared with that of resveratrol as a reference molecule.

Another assay has as its system Collagenase. In words: Collagenase activity kit (Sigma Aldrich MAK293, FALGPA substrate), anti-collagenase activity. The assay is classed as biochemical. Particulars: vs reference molecule hamamelitannin. Here is the method: A collagenase activity analysis kit (Sigma Aldrich MAK293) is used. The kit allows to screen collagenase inhibitors by measuring collagenase activity using a synthetic peptide (FALGPA) that mimics the structure of the collagen.
• Solutions of the kit: Reference MAK293-1KT (Sigma Aldrich) • Collagenase buffer (MAK293A-KC) • Collagenase solution (MAK293B-KC) • Collagenase substrate (MAK293C-KC) • Pharmethyl 96° ethyl alcohol, Reference 11371014 (Cristalco) • Purified water
A solution is made of exactly 1% (w/V) hamamelitannin (Extrasynthesis ref. 0958) in ethyl alcohol.
A solution of exactly 1% (w/V) sagerinic acid (prepared according to example 5.1.) is made in purified water.
as §1
• After addition, stir quickly by hand • Place in an oven at 37 °C for 30 minutes • Add 1.6 mL of purified water. Mix well. • Read the DO: Sample against blank, spectrophotometer at 345 nm.
The anti-collagenase activity of sagerinic acid was compared with that of hamamelitannin as a reference molecule.
In absolute values: Y=[(DOBlank 2−DOTest)−(DOBlank 1−DOcontrol)]/(DOBlank 1−DOcontrol)]×100

Take `Cc1sc[n+](CC(=O)c2ccccc2)c1C` [Alagebrium, reference compound]: the “Activity (protein deglycating activity)” value in assay [1] is recorded as 28.79 arbitrary dimensionless unit.

Take `O=C1O[C@H]([C@@H](O)CO)C(O)=C1O` [Ascorbic acid, ascorbic acid, reference compound]: the “Activity (elimination of DPPH free radical)” value in assay [2] is given as 5.26 arbitrary dimensionless unit.

For the compound `Oc1ccc(C=Cc2cc(O)cc(O)c2)cc1` [Resveratrol, resveratrol, reference compound], at SIRT1, the “Activity (activation of sirtuin-1)” value is reported as 80.54 arbitrary dimensionless unit.

Take `O=C(O[C@H](Cc1ccc(O)c(O)c1)C(=O)O)C1C(c2ccc(O)c(O)c2)C(C(=O)O[C@H](Cc2ccc(O)c(O)c2)C(=O)O)C1c1ccc(O)c(O)c1` (stereo partly shown) [Sagerinic acid]: the “Activity (elimination of DPPH free radical)” value in assay [2] is given as 9.70 arbitrary dimensionless unit. The “effect in eliminating free radicals relative to ascorbic acid” value in assay [2] (vs ascorbic acid) is reported as “almost twice the effect of ascorbic acid”. Besides, in assay [1], the “protein deglycating activity (in words)” value is given as “good protein deglycating activity” and the “Activity (protein deglycating activity)” value is listed as 16.78 arbitrary dimensionless unit. For the same compound, at SIRT1, the “effect on sirtuin activation (in words)” value is “good effect on sirtuin activation” and the “Activity (activation of sirtuin-1)” value was 26.56 arbitrary dimensionless unit. Moreover, the “inhibitory effect on proteases (collagenases) relative to hamamelitannin” value in the assay with Collagenase is “more than 2 times”.
